pIC50: −log10 of the molar value. Activity calls are given as the source filed them. No cut-off for these calls is given here.
Assays:
MDA-MB-468 [1] = assay: Downregulation of PARP1 expression level in human MDA-MB-468 cells by Western blot analysis; format: functional, cell-based; conditions: dose 5-20 µM, DDE = dose-dependent effect
[2] = target: T1, Poly [ADP-ribose] polymerase 1 (Homo sapiens, UniProt P09874); assay: Binding affinity to PARP1 in human MDA-MB-468 cells assessed as increase in thermal stability at 5 uM by cellular thermal shift assay; format: cell-based
MDA-MB-231 [3] = assay: Antitumor activity against human MDA-MB-231 cells xenografted in BALB/c nude mouse assessed as downregulation of c-Myc at 80 mg/kg by Western blot analysis; format: functional, organism-based
[4] = AUC (0 to t) in Sprague-Dawley rat at 10 mg/kg, po; format: ADME, organism-based; set-up: dose 10 mg/kg, route po; conditions: in vivo
MDA-MB-468 [5] = assay: Cell cycle arrest in human MDA-MB-468 cells assessed as accumulation at G0/G1 phase at 20 uM incubated for 72 hrs by propidium iodide staining-based flow cytometry analysis (reference value: 61.4%); format: functional
MDA-MB-468 [6] = assay: Cell cycle arrest in human MDA-MB-468 cells assessed as accumulation at S phase at 20 uM incubated for 72 hrs by propidium iodide staining-based flow cytometry analysis (reference value: 21.1%); format: functional
[7] = Oral bioavailability in Sprague-Dawley rat at 10 mg/kg; format: ADME, organism-based; conditions: in vivo
MDA-MB-468 [8] = assay: Inhibition of clone formation in human MDA-MB-468 cells measured after 10 days by crystal violet staining based analysis; format: functional, cell-based; conditions: dose 5-20 µM, time 10.0 day, DDE = dose-dependent effect
MDA-MB-468 [9] = assay: Induction of DNA damage in human MDA-MB-468 cells assessed as up-regulation of gammaH2AX expression level at 5 to 20 uMby DAPI staining based immunofluorescence assay; format: functional, cell-based; conditions: dose 5-20 µM
MDA-MB-468 [10] = assay: Cell cycle arrest in human MDA-MB-468 cells assessed as accumulation at S phase at 10 uM incubated for 72 hrs by propidium iodide staining-based flow cytometry analysis (reference value: 21.1%); format: functional
[11] = target: T1, Poly [ADP-ribose] polymerase 1
MDA-MB-468 [12] = assay: Cell cycle arrest in human MDA-MB-468 cells assessed as accumulation at G0/G1 phase at 5 uM incubated for 72 hrs by propidium iodide staining-based flow cytometry analysis (reference value: 61.4%); format: functional
[13] = target: T2, Bromodomain-containing protein 4 (Homo sapiens, UniProt O60885); assay: Inhibition of BRD4 BD1 (unknown origin)
MDA-MB-231 [14] = assay: Antitumor activity against human MDA-MB-231 cells xenografted in BALB/c nude mouse assessed as downregulation of Rad51 at 80 mg/kg by Western blot analysis; format: functional, organism-based
MDA-MB-468 [15] = assay: Cell cycle arrest in human MDA-MB-468 cells assessed as accumulation at G2/M phase at 10 uM incubated for 72 hrs by propidium iodide staining-based flow cytometry analysis (reference value: 16.1%); format: functional
MDA-MB-231 [16] = assay: Antitumor activity against human MDA-MB-231 cells xenografted in BALB/c nude mouse assessed as reduction in CtIp expression at 40 to 80 mg/kg incubated for 30 to 40 mins by immunohistochemical analysis; format: functional, organism-based; conditions: dose 40-80 mg/kg, time 30-40 min
MDA-MB-231 [17] = assay: Antiproliferative activity against human MDA-MB-231 cells assessed as reduction in cell viability incubated for 72 hrs by MTT assay; format: functional, cell-based; conditions: MDA-MB-231, 72 h
[18] = target: T1, Poly [ADP-ribose] polymerase 1; assay: Inhibition of PARP1 (unknown origin) at 1 uM relative to control
[19] = Half life in Sprague-Dawley rat at 1 mg/kg, iv; format: ADME, organism-based; conditions: in vivo
MDA-MB-231 [20] = assay: Antitumor activity against human MDA-MB-231 cells xenografted in BALB/c nude mouse assessed as tumor growth inhibition at 40 to 80 mg/kg incubated for 30 to 40 mins by Ki-67 staining based immunohistochemical analysis; format: functional, organism-based; conditions: dose 40-80 mg/kg, time 30-40 min
[21] = target: T2, Bromodomain-containing protein 4; assay: Inhibition of BRD4 (unknown origin)
MDA-MB-468 [22] = assay: Cell cycle arrest in human MDA-MB-468 cells assessed as accumulation at S phase at 5 uM incubated for 72 hrs by propidium iodide staining-based flow cytometry analysis (reference value: 21.1%); format: functional
MDA-MB-468 [23] = assay: Downregulation of BRD4 expression level in human MDA-MB-468 cells by Western blot analysis; format: functional, cell-based; conditions: dose 5-20 µM, DDE = dose-dependent effect
MDA-MB-231 [24] = assay: Antitumor activity against human MDA-MB-231 cells xenografted in BALB/c nude mouse assessed as downregulation of CtIP at 80 mg/kg by Western blot analysis; format: functional, organism-based
[25] = AUC (0 to infinity) in Sprague-Dawley rat at 10 mg/kg, po; format: ADME, organism-based; set-up: time infinity, dose 10 mg/kg, route po; conditions: in vivo
[26] = Cmax in Sprague-Dawley rat at 1 mg/kg, iv; format: ADME, organism-based; set-up: dose 1 mg/kg, route iv; conditions: in vivo
[27] = target: T2, Bromodomain-containing protein 4; assay: Binding affinity to BRD4 in human MDA-MB-468 cells assessed as increase in thermal stability at 5 uM by cellular thermal shift assay; format: cell-based
[28] = Toxicity in BALB/c nude mouse xenografted with human MDA-MB-468 cells assessed as change in body weight at 80 mg/kg, ig administered daily for 16 days measured every 3 days; format: organism-based; conditions: in vivo, po, 384 h, time 16 day
MDA-MB-468 [29] = assay: Induction of apoptosis in human MDA-MB-468 cells assessed as early apoptotic cells at 20 uM incubated for 72 hrs by annexin V/propidium iodide staining-based flow cytometry analysis (reference value: 4.07%); format: functional
MDA-MB-468 [30] = assay: Inhibition of homologous recombinant repair in human MDA-MB-468 cells assessed as down-regulation of Rad51 expression at 5 to 20 uM by Western blot analysis; format: functional, cell-based; conditions: dose 5-20 µM, DDE = dose-dependent effect
MDA-MB-468 [31] = assay: Induction of apoptosis in human MDA-MB-468 cells assessed as up-regulation of Bax protein level at 20 uM incubated for 72 hrs by Western blot analysis; format: functional, cell-based
MDA-MB-468 [32] = assay: Inhibition of homologous recombinant repair in human MDA-MB-468 cells assessed as down-regulation of p-RPA32 expression at 5 to 20 uM in by Western blot analysis; format: functional, cell-based; conditions: dose 5-20 µM
[33] = target: T2, Bromodomain-containing protein 4; assay: Inhibition of BRD4 BD2 (unknown origin)
[34] = Toxicity in BALB/c nude mouse xenografted with human MDA-MB-468 cells assessed as morphological changes in liver at 40 to 80 mg/kg, ig administered daily for 16 days measured every 3 days by hematoxyin-eosin staining based analysis; format: organism-based; conditions: in vivo, po, 384 h, dose 40-80 mg/kg, time 16 day
MDA-MB-468 [35] = assay: Induction of apoptosis in human MDA-MB-468 cells assessed as up-regulation of cleaved caspase 3 protein level at 20 uM incubated for 72 hrs by Western blot analysis; format: functional, cell-based
MDA-MB-468 [36] = assay: Cell cycle arrest in human MDA-MB-468 cells assessed as accumulation at G2/M phase at 20 uM incubated for 72 hrs by propidium iodide staining-based flow cytometry analysis (reference value: 16.1%); format: functional
MDA-MB-468 [37] = assay: Induction of apoptosis in human MDA-MB-468 cells assessed as late apoptotic cells at 10 uM incubated for 72 hrs by annexin V/propidium iodide staining-based flow cytometry analysis (reference value: 1.34%); format: functional
MDA-MB-468 [38] = assay: Downregulation of PAR expression level in human MDA-MB-468 cells by Western blot analysis; format: functional, cell-based; conditions: dose 5-20 µM, DDE = dose-dependent effect

T1 sequence (P09874 whole entry): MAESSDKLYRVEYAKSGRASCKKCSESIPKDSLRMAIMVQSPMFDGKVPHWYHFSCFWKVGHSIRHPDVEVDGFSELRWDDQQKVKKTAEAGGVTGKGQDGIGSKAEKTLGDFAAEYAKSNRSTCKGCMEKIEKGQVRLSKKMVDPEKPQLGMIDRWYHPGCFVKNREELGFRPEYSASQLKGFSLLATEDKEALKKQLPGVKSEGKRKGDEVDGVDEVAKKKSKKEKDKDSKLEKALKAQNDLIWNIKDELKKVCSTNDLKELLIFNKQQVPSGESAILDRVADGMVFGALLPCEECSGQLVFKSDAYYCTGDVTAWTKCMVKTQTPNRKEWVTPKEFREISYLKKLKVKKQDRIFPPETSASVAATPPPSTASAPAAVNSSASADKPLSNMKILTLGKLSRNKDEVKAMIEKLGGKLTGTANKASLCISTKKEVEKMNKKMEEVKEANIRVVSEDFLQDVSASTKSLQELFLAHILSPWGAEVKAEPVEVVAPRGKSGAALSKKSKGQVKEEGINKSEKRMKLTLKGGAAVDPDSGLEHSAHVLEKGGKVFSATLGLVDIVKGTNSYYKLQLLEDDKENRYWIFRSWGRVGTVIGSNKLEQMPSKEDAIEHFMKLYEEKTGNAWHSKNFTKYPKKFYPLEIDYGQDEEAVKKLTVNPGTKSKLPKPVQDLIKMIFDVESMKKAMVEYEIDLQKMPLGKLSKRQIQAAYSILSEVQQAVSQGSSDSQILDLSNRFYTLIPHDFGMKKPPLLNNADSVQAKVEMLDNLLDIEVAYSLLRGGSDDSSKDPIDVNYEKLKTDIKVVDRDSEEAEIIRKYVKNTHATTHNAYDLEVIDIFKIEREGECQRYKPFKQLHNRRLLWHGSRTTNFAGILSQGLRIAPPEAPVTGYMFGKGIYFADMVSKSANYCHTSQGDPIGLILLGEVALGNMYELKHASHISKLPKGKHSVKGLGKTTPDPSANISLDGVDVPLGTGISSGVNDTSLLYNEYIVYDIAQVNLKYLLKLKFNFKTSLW

For `COc1cc(OC)c2c(=O)[nH]c(-c3cccc(Cc4n[nH]c(=O)c5ccccc45)c3)nc2c1`, the Activity (MDA-MB-468 [1]) was “Dde”, the Activity [2] was “Active” and the Activity (MDA-MB-231 [3]) was “Active”. The AUC(0-t) [4] was 1490 ng·h/mL, the Activity (MDA-MB-468 [5]) was 74.3% and the Activity (MDA-MB-468 [6]) was 12.4%. The bioavailability [7] was 23.8%, the inhibition (MDA-MB-468 [8]) was “Dde” and the Activity (MDA-MB-468 [9]) was “Active”. It also gave an Activity (MDA-MB-468 [10]) of 22.8%, a pIC50 [11] of 6.71 and an Activity (MDA-MB-468 [12]) of 62.3%. For the same molecule, the pIC50 [13] was 6.60, the Activity (MDA-MB-231 [14]) was “Active” and the Activity (MDA-MB-468 [15]) was 14.5%. For the same molecule, the Activity (MDA-MB-231 [16]) was “Active”, the pIC50 (MDA-MB-231 [17]) was 5.18 and the inhibition [18] was 79.2%. The t1/2 [19] was 3.02 h, the Activity (MDA-MB-231 [20]) was “Active” and the pIC50 [21] was 6.62. For the same molecule, the Activity (MDA-MB-468 [22]) was 22.2%, the Activity (MDA-MB-468 [23]) was “Dde” and the Activity (MDA-MB-231 [24]) was “Active”. The AUC(0-inf) [25] was 1530 ng·h/mL, the Cmax [26] was 258 ng/mL and the Activity [27] was “Active”. The Activity [28] was “Non-Toxic”, the Activity (MDA-MB-468 [29]) was 28.26% and the inhibition (MDA-MB-468 [30]) was “Dde”. The Activity (MDA-MB-468 [31]) was “Active”, the inhibition (MDA-MB-468 [32]) was “Active” and the pIC50 [33] was 6.76. For the same molecule, the Activity [34] was “Non-Toxic”, the Activity (MDA-MB-468 [35]) was “Active” and the Activity (MDA-MB-468 [36]) was 14%. The Activity (MDA-MB-468 [37]) was 4.94% and the Activity (MDA-MB-468 [38]) was “Dde”.
